≈ marks a conversion by molar mass, not a printed value. Read-outs that look alike come from different tables or passages of the source.
Experiments:
[1] = Solubility test in water and biological vehicles (FaSSIF, FeSSIF); format: physicochemical; conditions: for solubility at 24 h: thermodynamic from solid, 37° C., HPLC, crystal form A calculated based on the free acid
[2] = In vivo PK experiments in beagle dogs, oral gavage
Procedure: The samples were detected by LC-MS/MS, and AUC, Cmax, and Tmax parameters were calculated by employing WinNonlin version 6.4.

[3] = background art; cited from earlier work
[4] = dog, blood, beagle dogs, P.O. 300 mg/kg, single oral gavage

SMILES: CC/C(=C(/c1ccc(/C=C/C(=O)O)cc1)c1[nH]c2ccccc2c1Cl)c1ccc(F)cc1Cl [compound I-8]
- solubility at 24 h ([1]; FaSSIF (simulated pre-meal intestinal fluid), read-out: Solubility in FaSSIF): 117 µg/mL (≈ 244 µM)
- solubility at 24 h ([1]; FeSSIF (simulated post-meal intestinal fluid), read-out: Solubility in FeSSIF): 440 µg/mL (≈ 916 µM)
- solubility at 24 h ([1]; purified water, read-out: Solubility in H2O): 8 µg/mL (≈ 16.7 µM)
- AUC(0-t) [2, 4]: 613 µM·h
- Cmax [2, 4]: 43.5 µM
- Tmax [2, 4]: 6 h
- MRT last ([2]; dog, blood, beagle dogs, P.O. 300 mg/kg, single oral gavage, read-out: MRT0-last): 10.6 h

SMILES: CC/C(=C(/c1ccc(/C=C/C(=O)O)cc1)c1[nH]c2ccccc2c1Cl)c1ccc(F)cc1Cl [compound of formula (I)]
- Solubility in biological media compared with compound 1-8 ([1]; biological media, versus compound 1-8): significantly improved
- Solubility in water compared with free acid compound 1-8 ([1]; water, versus compound 1-8): nearly hundredfold improved
- Amount of exposure in the organism compared with compound 1-8 ([2]; in vivo pharmacokinetic studies, versus compound 1-8): significantly increased

SMILES: C[C@]12CC[C@@H]3c4ccc(O)cc4C[C@@H](CCCCCCCCC[S+]([O-])CCCC(F)(F)C(F)(F)F)[C@H]3[C@@H]1CC[C@@H]2O (some centres unmarked) [fulvestrant]
- Oral bioavailability [3]: zero oral bioavailability
